Test results taken from PubChem BioAssay (NCI).
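Values below derive from 48-hour exposures of cells grown in 96-well plates, with endpoints linearly interpolated between the two concentrations bracketing the appropriate inhibition level. GI50 = concentration required for 50% inhibition of growth. At the TGI there is no net growth.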 Where a SMILES comes first, the peptide text is derived from it. [ ]: non-standard residue; d: D form. The star is where a group is joined. NMeAc5c = CNC1(C(=O)O)CCCC1; Boc = CC(C)(C)OC(=O)*; OBn = c1ccc(CO*)cc1

Tests used:
Assay in all cases: inhibition of tumour cell growth, NCI panel, 48 h
CAKI-1 renal = test system: CAKI-1 renal
LOX IMVI melanoma = test system: LOX IMVI melanoma
MALME-3M melanoma = test system: MALME-3M melanoma
NCI-H23 lung = test system: NCI-H23 lung
NCI-H522 lung = test system: NCI-H522 lung
PC-3 prostate = test system: PC-3 prostate
SN12C renal = test system: SN12C renal
SNB-75 CNS = test system: SNB-75 CNS
TK-10 renal = test system: TK-10 renal
UACC-257 melanoma = test system: UACC-257 melanoma
SK-MEL-28 melanoma = test system: SK-MEL-28 melanoma

| Structure (SMILES) | TGI (CAKI-1 renal) [µM] | TGI (LOX IMVI melanoma) [µM] | TGI (MALME-3M melanoma) [µM] | TGI (NCI-H23 lung) [µM] | TGI (NCI-H522 lung) [µM] | TGI (PC-3 prostate) [µM] | TGI (SN12C renal) [µM] | TGI (SNB-75 CNS) [µM] | TGI (TK-10 renal) [µM] | TGI (UACC-257 melanoma) [µM] | TGI (SK-MEL-28 melanoma) [µM] | GI50 (CAKI-1 renal) [µM] | GI50 (LOX IMVI melanoma) [µM] | GI50 (NCI-H522 lung) [µM] | GI50 (SK-MEL-28 melanoma) [µM] | GI50 (SN12C renal) [µM] | GI50 (UACC-257 melanoma) [µM] |
| --- | --- | --- | --- | --- | --- | --- | --- | --- | --- | --- | --- | --- | --- | --- | --- | --- | --- |
| CCCN(C(=O)c1ccccc1)C(C#N)c1ccc(C(C#N)N(CCC)C(=O)c2ccccc2)cc1 (stereo not given) | > 100 | > 100 | > 100 | > 100 | > 100 | > 100 | > 100 | 73.3 | > 100 | > 100 |  |  |  |  |  |  |  |
| COc1cccc(C(=O)O[C@H]2[C@@H]3[C@]4(OC(C)=O)CO[C@@H]4C[C@H](O)[C@@]3(C)C(=O)[C@H](OC(C)=O)C3=C(C)[C@@H](OC(=O)[C@H](O)[C@@H](NC(=O)OC(C)(C)C)c4ccco4)C[C@]2(O)C3(C)C)c1 | > 37.5 | > 15.6 | > 37.5 | > 37.5 | 0.157 |  | > 37.5 | 0.0241 | 27.4 | > 37.5 | > 29.5 |  |  |  |  |  |  |
| COc1ccc(COCCOCc2nc(C#N)c(N)o2)cc1 | > 100 | > 100 |  | > 100 | 75.8 | > 100 | > 100 | > 100 | > 100 | > 100 | > 100 |  |  |  |  |  |  |
| Cc1cn2c(/C=N/N=C(N)N)c(-c3cccc([N+](=O)[O-])c3)nc2s1 | 6.06 | 2.22 | 3.94 | 5.11 | 3.91 | 4.08 | 3.08 |  | 3.92 | 4.22 | 2.55 |  |  |  |  |  |  |
| CCOC(=O)c1csc(NC(=O)CN2CCOCC2)n1 | > 100 | > 100 |  | > 100 |  | > 100 |  | > 100 | > 100 | > 100 | > 100 |  |  |  |  |  |  |
| O=C(CCN1CCCCC1)C(=Cc1ccccc1)C(=O)CCN1CCCCC1 | > 100 | > 100 |  | > 100 |  |  | > 100 | > 100 |  | > 100 | > 100 | 80.4 | 3.39 | 15.1 | > 100 | 3.52 | 87.4 |
| CN(C(=O)C(Cc1ccccc1)NC(=O)OC(C)(C)C)C1(C(=O)NC(Cc2ccccc2)C(=O)OCc2ccccc2)CCCC1 (stereo not drawn) (Boc-Phe-[NMeAc5c]-Phe-OBn; configuration not given here) |  | > 100 | > 100 | > 100 |  | > 100 | > 100 | > 100 | > 100 | > 100 | > 100 |  |  |  |  |  |  |
| O=c1ccc(-c2ccccc2)n[nH]1 | > 100 | > 100 | > 100 | > 100 | > 100 | > 100 | > 100 |  | > 100 | > 100 | > 100 |  |  |  |  |  |  |
| COc1ccc(-c2c(C#N)c(-c3ccc(C)cc3)n(NS(=O)(=O)c3ccc(C)cc3)c(=O)c2C#N)cc1 | > 100 | > 100 | > 100 |  | > 100 | > 100 | > 100 | > 100 | > 100 | > 100 | > 100 |  |  |  |  |  |  |
| Cc1cc(Cc2cc(C)c(N)cc2N)c(N)cc1N | > 100 | > 100 |  | > 100 | > 100 | > 100 | > 100 | > 100 | > 100 | > 100 | > 100 |  |  |  |  |  |  |
| O=[N+]([O-])c1ccc2c(c1)c(OCc1ccccc1)nn2Cc1ccccc1 | > 100 | > 100 | > 100 | > 100 | > 100 | > 100 | > 100 |  | > 100 | > 100 | > 100 |  |  |  |  |  |  |
| O=C(N/N=C(/COc1ccc(Cl)cc1)N=Cc1ccncc1)c1ccncc1 | > 100 | > 100 | > 100 | > 100 | > 100 | > 100 | > 100 |  | > 100 | > 100 | > 100 |  |  |  |  |  |  |
| C#CCNC(CS)C(=O)O (stereo not given) | > 100 | > 100 | > 100 | > 100 | > 100 | > 100 |  | > 100 | > 100 | > 100 | > 100 |  |  |  |  |  |  |
| Cc1ccc(N=NC(=Nc2ccccc2)c2ccc(N(CCC#N)CCC#N)cc2)cc1 | > 100 |  |  | 43.9 | 45.2 | 59.9 | > 100 | > 100 | 74.9 | 54 | > 100 |  |  |  |  |  |  |
| NC(=O)NCCCC(NC(=O)OCCCCn1ccc(=O)[nH]c1=O)C(=O)O (stereo not given) | > 100 | > 100 |  | > 100 |  | > 100 | > 100 | > 100 | > 100 | > 100 | > 100 |  |  |  |  |  |  |
| O=C1CCCc2cc3c(cc21)CC1(Cc2ccccc2C1)C3 |  | 28.6 | 70.1 | > 100 | 21.5 | > 100 | 41 | 3 | > 100 | 20.2 |  |  |  |  |  |  |  |
| Cc1ccc(Cl)c2[nH]c(-c3ccccc3)cc(=O)c12 |  | > 100 | > 100 | > 100 | > 100 | > 100 | > 100 | > 100 | > 100 | > 100 | > 100 |  |  |  |  |  |  |
| Clc1ccccc1C(SCc1ccccc1)SCc1ccccc1 | > 100 |  | > 100 | > 100 | > 100 | > 100 | > 100 | > 100 | > 100 | > 100 | > 100 |  |  |  |  |  |  |
| COc1ccc2c(c1)/C(=C/CCN(C)C)c1ccccc1S2 |  | > 100 |  | > 100 |  | > 100 | > 100 | > 100 | > 100 | > 100 | 38.8 |  |  |  |  |  |  |
| CCOC(=O)/C=C/CC(C)(C)CCOC(C)=O | > 10 | > 10 |  | > 10 | > 10 | > 10 | > 10 | > 10 | > 10 | > 10 | > 10 |  |  |  |  |  |  |
| COC(=O)C([C@H](NC1(c2ccccc2)c2ccccc2-c2ccccc21)C(=O)OC)N(NC(=O)OCc1ccccc1)C(=O)OCc1ccccc1 (mixture of isomers) | > 100 | > 100 | > 100 | > 100 | > 100 | > 100 | > 100 |  | > 100 | > 100 | > 100 |  |  |  |  |  |  |
